In patent US8703805B2 (Exelixis Patent Company LLC, priority 2005, dated 2014) one finds EC50 data, which are given here for 22 compounds.

Where only a bound is given, the exact number is not on record here.

The test relates to LXRα and/or LXRβ. Put plainly: LXR/LXRE co-transfection assay (luciferase reporter, CV-1 cells). It is filed as cell-based, human. The settings on record: IC50 or EC50 for LXR (LXRα and/or LXRβ, not distinguished), tested as described in Example 109, CV-1 cells. An outline of the steps:
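Transient co-transfection of CV-1 cells with full-length human LXRα or LXRβ plus RXRα expression plasmids and an LXREx1-Tk-luciferase reporter; compounds (10 μM screen, ≤1% DMSO) incubated 20 h at 37 °C. Luminescence read after lysis; EC50/IC50 from 8-point half-log curves, efficacy relative to a high control or DMSO.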
`CC(O)(c1cc(-c2ccc(-c3cccc(S(C)(=O)=O)c3)s2)n(-c2ccccc2Cl)n1)C(F)(F)F` (stereo not shown) [Example 1181, 2-[1-(2-chlorophenyl)-5-{5-[3-(methylsulfonyl)phenyl]-2-thienyl}-1H-pyrazol-3-yl]-1,1,1-trifluoropropan-2-ol] yielded an EC50 of less than 1000 nM.

For the compound `CC(O)(c1cc(-c2ccc(-c3cccc(S(C)(=O)=O)c3)s2)n(-c2ccccc2Cl)n1)C(F)(F)F` (stereo not shown) [Example 1182, 2-[1-(2-chlorophenyl)-5-{5-[3-(methylsulfonyl)phenyl]-2-thienyl}-1H-pyrazol-3-yl]-1,1,1-trifluoropropan-2-ol], the EC50 is less than 1000 nM.

As for `CC(=O)c1cc(-c2ccc(-c3cccc(S(=O)(=O)C(C)C)c3)s2)n(-c2ncccc2C(F)(F)F)n1` [Example 1183, 1-{5-(5-{3-[(1-methylethyl)sulfonyl)phenyl}-2-thienyl)-1-[3-(trifluoromethyl)pyridin-2-yl]-1H-pyrazol-3-yl}ethanone], the EC50 was less than 1000 nM.

`CC(C)S(=O)(=O)c1cccc(-c2ccc(-c3cc(C(C)(C)O)nn3-c3ncccc3C(F)(F)F)s2)c1` [Example 1184, 2-{5-(5-{3-[(1-methylethyl)sulfonyl]phenyl}-2-thienyl)-1-[3-(trifluoromethyl)pyridin-2-yl]-1H-pyrazol-3-yl}propan-2-ol] gave an EC50 of 1000 to 10000 nM.

For the compound `CC(C)S(=O)(=O)c1cccc(-c2ccc(-c3cc(C(C)(C)O)nn3-c3ccccc3Cl)s2)c1` [Example 1185, 2-[1-(2-chlorophenyl)-5-(5-{3-[(1-methylethyl)sulfonyl]phenyl}-2-thienyl)-1H-pyrazol-3-yl]propan-2-ol], the EC50 was less than 1000 nM.

Turning to `COC(=O)c1cccc(-n2nc(C(F)(F)F)cc2-c2ccc(-c3cccc(S(C)(=O)=O)c3)s2)c1` [Example 1186, methyl 3-[5-{5-[3-(methylsulfonyl)phenyl]-2-thienyl}-3-(trifluoromethyl)-1H-pyrazol-1-yl]benzoate], the EC50 is less than 1000 nM.

With `CC(C)(O)c1cccc(-n2nc(C(F)(F)F)cc2-c2ccc(-c3cccc(S(C)(=O)=O)c3)s2)c1` [Example 1187, 2-{3-[5-{5-[3-(methylsulfonyl)phenyl]-2-thienyl}-3-(trifluoromethyl)-1H-pyrazol-1-yl]phenyl}propan-2-ol], the EC50 is less than 1000 nM.

In turn, `CS(=O)(=O)c1cccc(-c2ccc(-c3cc(C4(C#N)CC4)nn3-c3ccccc3Cl)s2)c1` [Example 1188, 1-[1-(2-chlorophenyl)-5-{5-[3-(methylsulfonyl)phenyl]-2-thienyl}-1H-pyrazol-3-yl]cyclopropanecarbonitrile] had an EC50 of less than 1000 nM.

`COC(C)(C)c1cc(-c2ccc(-c3cccc(S(C)(=O)=O)c3)s2)n(-c2ccccc2C(F)(F)F)n1` [Example 1189, 3-[1-methyl-1-(methyloxy)ethyl]-5-{5-[3-(methylsulfonyl)phenyl]-2-thienyl}-1-[2-(trifluoromethyl)phenyl]-1H-pyrazole]: the EC50 was less than 1000 nM.

For `CS(=O)(=O)c1cccc(-c2ccc(-c3cc(C4(C#N)CCCC4)nn3-c3ccccc3Cl)s2)c1` [Example 1191, 1-[1-(2-chlorophenyl)-5-{5-[3-(methylsulfonyl)phenyl]-2-thienyl}-1H-pyrazol-3-yl]cyclopentanecarbonitrile], the EC50 was less than 1000 nM.

Consider `CC(C)(CN)c1cc(-c2ccc(-c3cccc(S(C)(=O)=O)c3)s2)n(-c2ccccc2Cl)n1` [Example 1192, 2-[1-(2-chlorophenyl)-5-{5-[3-(methylsulfonyl)phenyl]-2-thienyl}-1H-pyrazol-3-yl]-2-methylpropan-1-amine], for which the EC50 was less than 1000 nM.

The compound `CS(=O)(=O)c1cccc(-c2ccc(-c3cc(C(=O)O)nn3-c3ccccc3C(F)(F)F)s2)c1` [Example 1193, 5-{5-[3-(methylsulfonyl)phenyl]-2-thienyl}-1-[2-(trifluoromethyl)phenyl]-1H-pyrazole-3-carboxylic acid] gave an EC50 of 1000 to 10000 nM.

`CCNC(=S)c1cc(-c2ccc(-c3cccc(S(C)(=O)=O)c3)s2)n(-c2ccccc2Cl)n1` [Example 1194, 1-(2-chlorophenyl)-N-ethyl-5-{5-[3-(methylsulfonyl)phenyl]-2-thienyl}-1H-pyrazole-3-carbothioamide] registered an EC50 of less than 1000 nM.

In turn, `CS(=O)(=O)c1cccc(-c2ccc(-c3cc(C(=O)NCC(F)(F)F)nn3-c3ccccc3C(F)(F)F)s2)c1` [Example 1195, 5-{5-[3-(methylsulfonyl)phenyl]-2-thienyl}-N-(2,2,2-trifluoroethyl)-1-[2-(trifluoromethyl)phenyl]-1H-pyrazole-3-carboxamide] registered an EC50 of less than 1000 nM.

`CS(=O)(=O)NC(=O)c1cc(-c2ccc(-c3cccc(S(C)(=O)=O)c3)s2)n(-c2ccccc2C(F)(F)F)n1` [Example 1196, N-(methylsulfonyl)-5-{5-[3-(methylsulfonyl)phenyl]-2-thienyl}-1-[2-(trifluoromethyl)phenyl]-1H-pyrazole-3-carboxamide] yielded an EC50 of 1000 to 10000 nM.

Turning to `NS(=O)(=O)c1cccc(-c2ccc(-c3cc(C(F)(F)F)nn3-c3cc(Cl)ccc3Oc3ccccc3)s2)c1` [Example 1198, 3-(5-{1-[5-chloro-2-(phenyloxy)phenyl]-3-(trifluoromethyl)-1H-pyrazol-5-yl}-2-thienyl)benzenesulfonamide], the EC50 is less than 1000 nM.

`CC(C)(O)c1cc(-c2ccc(-c3cccc(S(C)(=O)=O)c3)cc2)n(-c2ccccc2C(F)(F)F)n1` [Example 1201, 2-{5-[3′-(methylsulfonyl)biphenyl-4-yl]-1-[2-(trifluoromethyl)phenyl]-1H-pyrazol-3-yl}propan-2-ol] returned an EC50 of less than 1000 nM.

Take `CC(C)(O)c1cc(-c2ccc(-c3cccc(S(C)(=O)=O)c3)cc2)n(-c2ncccc2C(F)(F)F)n1` [Example 1202, 2-{5-[3′-(methylsulfonyl)phenyl-4-yl]-1-[3-(trifluoromethyl)pyridin-2-yl]-1H-pyrazol-3-yl}propan-2-ol]: the EC50 is less than 1000 nM.

For `CC(C)(NC=O)c1cc(-c2ccc(-c3cccc(S(C)(=O)=O)c3)s2)n(-c2ccccc2Cl)n1` [Example 1203, N-{1-[1-(2-chlorophenyl)-5-{5-[3-(methylsulfonyl)phenyl]-2-thienyl}-1H-pyrazol-3-yl]-1-methylethyl}formamide], the EC50 was in the range of 1000 to 10000 nM.

Regarding `CC(C)(CNC=O)c1cc(-c2ccc(-c3cccc(S(C)(=O)=O)c3)s2)n(-c2ccccc2Cl)n1` [Example 1204, N-{2-[1-(2-chlorophenyl)-5-{5-[3-(methylsulfonyl)phenyl]-2-thienyl}-1H-pyrazol-3-yl]-2-methylpropyl}formamide], the EC50 was 1000 to 10000 nM.

The compound `CC(C)(C(=O)O)c1cccc(-c2ccc(-c3cc(C(F)(F)F)nn3Cc3ccc(F)cc3F)s2)c1` [Example 1205, 2-[3-(5-{1-[(2,4-difluorophenyl)methyl]-3-(trifluoromethyl)-1H-pyrazol-5-yl}-2-thienyl)phenyl]-2-methylpropanoic acid] gave an EC50 of less than 1000 nM.

Take `CC(=O)c1cc(-c2cc(C(F)(F)F)nn2-c2ccccc2Cl)ccc1-c1cccc(S(C)(=O)=O)c1` [Example 1206, 1-{4-[1-(2-chlorophenyl)-3-(trifluoromethyl)-1H-pyrazol-5-yl]-3′-(methylsulfonyl)biphenyl-2-yl}ethanone]: the EC50 was less than 1000 nM.

By EC50 is commonly meant the concentration that produces a half-maximal response.
